Measurements published in US20040253206A1 (priority 1999, published 2004).
Read-outs that look alike come from different tables or passages of the source.

Assays:
[1] = Hande 1998; cited from earlier work
[2] = system: HT-1080-DR4 doxorubicin selected MDR (MRP/LRP phenotype) fibrosarcoma cell line; experiment: Tumor cell growth inhibition (SRB), HT-1080-DR4; type: cell-based, human; conditions: for Resistance ratio (IC50 resistant cell line/IC50 parental line) HT1080/DR4: HT1080/DR4 versus HT-1080, range over experiments; for IC50: 72-96 h, read-out: IC50 (±S.E.) HT-1080-DR4
Text: (§1) HT-1080 and HT-1080/DR4 (MRP/LRP positive) fibrosarcoma cell lines (1,2) were obtained from Dr. Y. Rustum, Roswell Park Cancer Institute, Buffalo, N.Y. The A121 ovarian cell line (3) was provided by Dr. Kent Crickard, Buffalo General Hospital, Buffalo, N.Y. The MDA435/LCC6-WT and MDR^1 transfected cell lines (4) were provided by Dr. R. Clarke, Lombardi Cancer Center, Georgetown University School of Medicine. Cell lines were propagated as monolayers in RPMI-1640 containing 5% FCS, 5% NuSerum IV, 20 mM HEPES, 2 mM L-glutamine at 37° C. in a 5% CO2 humidified atmosphere.
(§2) Paclitaxel, which was used for comparison purposes and is not a compound of the present invention, was provided by Dr. I. Ojima, SUNY at Stonybrook. […] Paclitaxel was solubilized in 100% DMSO. […] For the second experiment (Experiment 2), less concentrated stock solutions (0.4 mM) of each compound were prepared in sterile H2O acidified with 10% 1 N HCl. […] All compounds were further diluted in RPMI-1640 containing 10 mM HEPES.
(§3) Assessment of cell growth inhibition was determined in 96 well microtiter plates according to the method of Skehan et al., “New Colorimetric Cytotoxicity Assay for Anticancer-Drug Screening, Articles 82(13):1107-1112 (1990). Briefly, cells were plated with 400-1800 cells/well in 96 well plates and incubated at 37° C. 15-18 hr prior to drug addition to allow for cell attachment. Each cell line was exposed to 12 concentrations of compound (a 6 log range), 5 replicate data points per compound concentration. […] Assays were terminated with 100 μl of ice-cold 50% TCA. After 1 hr at 4° C., plates were washed 5 times with tap water to remove TCA, low-molecular-weight metabolites and serum proteins. 50 μl of 0.4% sulforhodamine B (SRB) was added to each well. Following a five minute incubation at room temperature, plates were rinsed 5 times with 0.1% acetic acid and air dried. Bound dye was solubilized with 10 mM Tris Base (pH 10.5) for 5 min on a gyratory shaker. Optical density was measured at 570 nm.
(§4) Data were fit with the Sigmoid-Emax concentration-effect model (N. H. G. Holford and L. B. Scheiner, “Understanding the dose-effect relationship: Clinical applications of pharmacokinetic-pharmacodynamic models,” Clin. Pharmacokin. 6:429-453 (1981)) with nonlinear regression, weighted by the reciprocal of the square of the predicted response. The fitting software was developed at RPCI with Microsoft FORTRAN, and uses Marquardt algorithm (D. W. Marquardt, “An algorithm for least squares estimation of nonlinear parameters,” J. Soc. Ind. Appl. Math. 11:431-441) as adapted by Nash (J. C. Nash, Compact Numerical Method for Computers: Linear Algebra and Function Minimization, New York: John Wiley & Sons, 1979) for the nonlinear regression.

[3] = system: LCC6-WT breast carcinoma cell line; experiment: Tumor cell growth inhibition (SRB), LCC6-WT; type: cell-based, human; conditions: read-out: IC50 (±S.E.) LCC6-WT
Text: as §1, §2, §3, §4

[4] = system: A121 ovarian carcinoma cell line; experiment: Tumor cell growth inhibition (SRB), A121; type: cell-based, human; conditions: 72-96 h, read-out: IC50 (±S.E.) A121
Text: as §1, §2, §3, §4

[5] = system: HT-1080 fibrosarcoma cell line; experiment: Tumor cell growth inhibition (SRB), HT-1080; type: cell-based, human; conditions: 72-96 h, read-out: IC50 (±S.E.) HT-1080
Text: as §1, §2, §3, §4

[6] = system: LCC6-MDR1 PgP transfected breast carcinoma cell line; experiment: cells; conditions: for Resistance ratio (IC50 resistant cell line/IC50 parental line) LCC6-MDR1: LCC6-MDR1 versus LCC6-WT, range over experiments
Text: as §1, §2, §3, §4

[7] = Storage stability of trifluoroacetate product fraction solutions (analytical HPLC); type: physicochemical
[8] = Chemical hydrolysis in wet acetonitrile; type: physicochemical; conditions: ca. 1 mg/mL in wet acetonitrile, 26 days at room temperature
Protocol: A sample of solid acetate (Compound 4) was dissolved (ca. 1 mg/mL) in wet acetonitrile (nonanhydrous due to exposure to humid air).

[9] = Experiment 1, TX-001/TX-002 from 4.0 mM stocks
[10] = Experiment 2, TX-001/TX-002 from 0.4 mM stocks
[11] = 4.0 mM stock solutions that had been stored at 4° C. for 7 days
[12] = Experiment 1, TX-001/TX-002 from 4.0 mM stocks, 72-96 h
[13] = Experiment 2, TX-001/TX-002 from 0.4 mM stocks, 72-96 h

| Compound | Resistance ratio (IC50 resistant cell line/IC50 parental line) HT1080/DR4 [2] | Resistance ratio (IC50 resistant cell line/IC50 parental line) LCC6-MDR1 [6] | IC50 [2, 9] [nM] | IC50 [2, 10] [nM] | IC50 [3, 11] [nM] | IC50 [3, 12] [nM] | IC50 [3, 13] [nM] | IC50 [4, 9] [nM] | IC50 [4, 10] [nM] | IC50 [5, 9] [nM] | IC50 [5, 10] [nM] | also measured |
| --- | --- | --- | --- | --- | --- | --- | --- | --- | --- | --- | --- | --- |
| COc1cc([C@@H]2c3cc4c(cc3[C@@H](O[C@@H]3O[C@@H]5CO[C@@H](C)O[C@H]5[C@H](O)[C@H]3O)[C@H]3COC(=O)[C@H]23)OCO4)cc(OC)c1O [Etoposide] |  |  |  |  |  |  |  |  |  |  |  | solubility in water [1]: nearly insoluble in water |
| CC(=O)O[C@H]1C(=O)[C@@]2(C)[C@H]([C@H](OC(=O)c3ccccc3)[C@]3(O)C[C@H](OC(=O)[C@H](O)[C@@H](NC(=O)c4ccccc4)c4ccccc4)C(C)=C1C3(C)C)[C@]1(OC(C)=O)CO[C@@H]1C[C@@H]2O [Paclitaxel, reference compound] | 1.1-1.4 fold | 65-92 fold |  |  |  |  |  |  |  |  |  | IC50 ([2]; Homo sapiens, Experiment 1, TX-001/TX-002 from 4.0 mM stocks): 4.9 ± 0.4 nM; IC50 ([2]; Homo sapiens, Experiment 2, TX-001/TX-002 from 0.4 mM stocks): 7.7 ± 0.1 nM; IC50 ([3]; Homo sapiens, Breast carcinoma cell, Experiment 1, TX-001/TX-002 from 4.0 mM stocks, 72-96 h): 4.7 ± 0.5 nM; IC50 ([3]; Homo sapiens, Breast carcinoma cell, Experiment 2, TX-001/TX-002 from 0.4 mM stocks, 72-96 h): 6 ± 2 nM; IC50 ([4]; Homo sapiens, A121, Experiment 1, TX-001/TX-002 from 4.0 mM stocks): 11 ± 0.5 nM; IC50 ([4]; Homo sapiens, A121, Experiment 2, TX-001/TX-002 from 0.4 mM stocks): 14 ± 1.3 nM; IC50 ([5]; Homo sapiens, HT-1080, Experiment 1, TX-001/TX-002 from 4.0 mM stocks): 4.5 ± 0.2 nM; IC50 ([5]; Homo sapiens, HT-1080, Experiment 2, TX-001/TX-002 from 0.4 mM stocks): 5.7 ± 0.3 nM; IC50 ([6]; Homo sapiens, LCC6MDR, read-out: IC50 (±S.E.) LCC6-MDR, Experiment 1, TX-001/TX-002 from 4.0 mM stocks, 72-96 h): 434 ± 28 nM; IC50 ([6]; Homo sapiens, LCC6MDR, read-out: IC50 (±S.E.) LCC6-MDR, Experiment 2, TX-001/TX-002 from 0.4 mM stocks, 72-96 h): 391 ± 52 nM |
| CC(=O)O.CC(=O)OC1C(=O)C2(C)C(O)CC3OCC3(OC(C)=O)C2C(OC(=O)c2ccccc2)C2(O)CC(OC(=O)C(OC(=O)CCCC(=O)NCCOCCOCCN)C(NC(=O)c3ccccc3)c3ccccc3)C(C)=C1C2(C)C (stereo not drawn) [TX-002, 2′-Glutaramidyl-PEG2-amine-paclitaxel acetate] | 1.1-1.5 fold | 47-60 fold | 32 ± 1.5 | 54 ± 5.3 | 16 | 18 ± 1.1 | 38 ± 4.6 | 48 ± 3 | 171 ± 8.8 | 22 ± 0.9 | 49 ± 6.5 | IC50 ([6]; read-out: IC50 (±S.E.) LCC6-MDR, 4.0 mM stock solutions that had been stored at 4° C. for 7 days): 879 nM; IC50 ([6]; read-out: IC50 (±S.E.) LCC6-MDR, Experiment 1, TX-001/TX-002 from 4.0 mM stocks, 72-96 h): 1070 ± 45 nM; IC50 ([6]; read-out: IC50 (±S.E.) LCC6-MDR, Experiment 2, TX-001/TX-002 from 0.4 mM stocks, 72-96 h): 1800 ± 168 nM |
| 2′-Succinamidyl-PEG2-amine-paclitaxel trifluoroacetate [Compound 3] |  |  |  |  |  |  |  |  |  |  |  | average purity of product fraction solutions after storage ([7]; after storage at 8° C. for 16 days): 97.4%; average purity of product fraction solutions, initial ([7]; preparative HPLC fraction solutions, before storage): 98.8% |
| CC(=O)O.CC(=O)OC1C(=O)C2(C)C(O)CC3OCC3(OC(C)=O)C2C(OC(=O)c2ccccc2)C2(O)CC(OC(=O)C(OC(=O)CCC(=O)NCCOCCOCCN)C(NC(=O)c3ccccc3)c3ccccc3)C(C)=C1C2(C)C (stereo not drawn) [TX-001, 2′-Succinamidyl-PEG2-amine-paclitaxel Acetate] |  |  | 8.9 ± 0.4 | 36 ± 1.5 | 2.7 | 4.9 ± 0.5 | 13 ± 0.5 | 13 ± 0.5 | 37 ± 1.2 | 4.5 ± 0.4 | 19 ± 0.7 | chemical hydrolysis behavior [8]: converted quantitatively into paclitaxel |
